Measured values published in patent publication US4416885A, “Use of isopropylaminopyrimidine in the chemotherapy of muscular dystrophy, myopathy and myotonia” (priority 1982, dated 1983).

Tests used:
Assay type in all cases: in vivo, chicken
[1] = system: plasma PK (pyruvate kinase); test: Plasma PK
Description: (§1) Chemotherapy was assessed by application of seven different parameters: physical tests of muscular disability, namely the flip test and wing apposition (W.A.) measurements; biochemical assays of serum and muscle enzume levels of creatine phosphokinase (CPK), pyruvate kinase (PK) and acetylcholinesterase (AChE); and histological comparisons of treated and untreated muscle. Toxicity studies (weight loss, etc.) were also used. A very comprehensive profile of the drug was thus obtained which related to all the known, highly characteristic features of the disease which are applicable to both the animal model and the human.
A massive rise in this enzyme level also occurs in the dystrophic chicken compared to the normal control, as it does in the human disease.
The drug was administered daily in water, injected intra-peritoneally, the amount being adjusted on a weekly basis according to the animal's weight.
Finally, oral therapy with IAPP was undertaken at gradually increasing dosages up to 1 g/Kg/day. The parameters (physical, biochemical and histological) measured previously were again used to test the efficacy of the drug; five different dosages were used orally, each being given for 30-60 days, daily (Tables VII-XI). A total of 75 animals were treated in the current study with IAPP and 70 control animals were used.

[2] = system: dystrophic New Hampshire chickens, line 413; test: Overall assessment of chemotherapy over all parameters measured
Description: The compound IAPP was tested on dystrophic New Hampshire chickens, line 413, and Imperial College (London, England) sub-line of the original Davis, University of California strain. The chickens are homozygous for muscular dystrophy, the disease appearing with 100% incidence.
as §1, with “human. […]” for “human.”

dystrophic chickens 413 = test: Experiment 4, weight of dystrophic chickens injected with IAPP; conditions: for Weight: 50 mg/Kg
Description: All chickens were injected with 50 mg/Kg IAPP and weighed approximately every second or third day.
A: Control-injected with PBS
B, C, D: Experimental-injected with 50 mg/Kg IAPP

[3] = 200 mg/Kg i.p. daily for 30 days, day 28 ex ovo
[4] = 200 mg/Kg i.p. daily for 30 days, day 56 ex ovo
[5] = 200 mg/Kg i.p. daily for 30 days, day 84 ex ovo
[6] = 300 mg/Kg i.p. daily for 30 days, day 28 ex ovo
[7] = 300 mg/Kg i.p. daily for 30 days, day 56 ex ovo
[8] = 300 mg/Kg i.p. daily for 30 days, day 84 ex ovo
[9] = 300 mg/Kg i.p. three times weekly for 30 days, day 84 ex ovo
[10] = Table VII, oral 200 mg/Kg, 60 days, day 28 ex ovo
[11] = Table VII, oral 200 mg/Kg, 60 days, day 35 ex ovo
[12] = oral 300 mg/Kg daily, day 28 ex ovo
[13] = oral 300 mg/Kg daily, day 35 ex ovo
[14] = oral 450 mg/Kg daily for 45 days, day 35 ex ovo
[15] = oral 450 mg/Kg daily for 45 days, day 50 ex ovo
[16] = oral 600 mg/Kg daily, day 35 ex ovo
[17] = oral 600 mg/Kg daily, day 50 ex ovo
[18] = oral 1 g/Kg daily, day 28 ex ovo
[19] = oral 1 g/Kg daily, day 35 ex ovo
[20] = 200 mg/Kg i.p. daily for 28 days
[21] = oral 1 g/Kg daily, first four weeks

Question: Which results are given for `CC(C)Nc1ncccn1.O=P(O)(O)O` [IAPP, 2-isopropylaminopyrimidine orthophosphate]?
Answer: PK [1, 3]: 377; PK, % change from control [1, 3]: -47%; PK [1, 4]: 1612; PK, % change from control [1, 4]: -45%; PK [1, 5]: 2949; PK, % change from control [1, 5]: -36%; PK [1, 6]: 429; PK, % change from control [1, 6]: -40%; PK [1, 7]: 2447; PK, % change from control [1, 7]: -16%; PK [1, 8]: 5282; PK, % change from control [1, 8]: +15%; PK, % change from control ([1]; 300 mg/Kg i.p. three times weekly for 30 days, day 28 ex ovo): -30%; PK ([1]; 300 mg/Kg i.p. three times weekly for 30 days, day 56 ex ovo): 2486; PK [1, 9]: 3766; PK, % change from control [1, 9]: -18%; % PK Change vs untreated dystrophic controls ([1]; Exp. 2, 40 mg/Kg i.p. daily, day 14-20): -38%; % PK Change vs untreated dystrophic controls ([1]; Exp. 2, 40 mg/Kg i.p. daily, day 21-27): -57%; % PK Change vs untreated dystrophic controls ([1]; Exp. 2, 40 mg/Kg i.p. daily, day 28-34): -60%; % PK Change vs untreated dystrophic controls ([1]; Exp. 2, 40 mg/Kg i.p. daily, day 35-41): -48%; % PK Change vs untreated dystrophic controls ([1]; Exp. 2, 40 mg/Kg i.p. daily, day 42-48): -58%; % PK Change vs untreated dystrophic controls ([1]; Exp. 2, 40 mg/Kg i.p. daily, day 56-62): -42%; % PK Change vs untreated dystrophic controls ([1]; Exp. 2, 40 mg/Kg i.p. daily, day 63-71): -41%; % PK Change vs untreated dystrophic controls ([1]; Exp. 3, 70 mg/Kg i.p. daily, day 21-27): -32%; % PK Change vs untreated dystrophic controls ([1]; Exp. 3, 70 mg/Kg i.p. daily, day 28-34): -65%; PK [1, 10]: 1925; PK, % change from control [1, 10]: -4%; PK [1, 11]: 2150; PK, % change from control [1, 11]: +6%; PK [1, 12]: 2010; PK, % change from control [1, 12]: +1%; PK [1, 13]: 907; PK, % change from control [1, 13]: +28%; PK [1, 14]: 2520; PK, % change from control [1, 14]: +0.6%; PK [1, 15]: 3891; PK, % change from control [1, 15]: +7%; PK [1, 16]: 1639; PK, % change from control [1, 16]: -36%; PK [1, 17]: 2824; PK, % change from control [1, 17]: -22%; PK [1, 18]: 1080; PK, % change from control [1, 18]: -48%; PK [1, 19]: 1812; PK, % change from control [1, 19]: -50%; Physical performance [2, 20]: not significantly improved; Reduction in plasma enzyme levels [2, 20]: large reduction in plasma enzume levels; Persistence of enzyme reduction after injections ceased ([2]; 200 mg/Kg i.p., CPK, PK, AChE reduced from control values): 56 days; Plasma enzyme activities ([2]; 300 mg/Kg i.p. daily): greatly reduced; Persistence of reduced plasma enzyme levels after treatment ceased ([2]; 300 mg/Kg i.p. three times weekly): 56 days; Reductions in plasma enzyme levels vs daily therapy ([2]; 300 mg/Kg three times weekly): very comparable reductions in plasma enzyme levels; Difference between treated and dystrophic control animals, parameters measured ([2]; Exp. 1, 30 mg/Kg i.p. daily): no significant differents; Flip number and wing apposition ([2]; Exp. 2, 40 mg/Kg): significant improvement; Effect on all parameters measured ([2]; Exp. 2, 40 mg/Kg i.p. daily): significant effect of IAPP on all parameters measured; CPK, PK and AChE enzyme levels ([2]; Exp. 2, 40 mg/Kg, effect declining at end of 10-week experiment): reduced dramatically; minimal effective dose ([2]; Gallus gallus, ip, read-out: Minimum concentration found effective): 40 mg/kg; Effect on physical performance parameters ([2]; oral 200 mg/Kg, 60 days): no effect; Enzyme levels and physical performance ([2]; oral 600 mg/Kg): significant reductions in enzyme levels and improvements in physical performance; Physical performance parameters [2, 21]: greatly improved; Reduction in enzyme levels [2, 21]: highly significant reduction in enzyme levels; Effective oral dosage ([2]; oral, daily for 35 days, chicken): 1 g/kg; Toxic side effect (dystrophic chickens 413; Exp. 4, 50 mg/Kg injected, normal and dystrophic chickens): There did not appear to be a toxic side effect; Weight (dystrophic chickens 413; Exp. 4, 413B, day 1): 48.3 GRAMS; Weight (dystrophic chickens 413; Exp. 4, 413B, day 4): 51.2 GRAMS; Weight (dystrophic chickens 413; Exp. 4, 413B, day 7): 56.7 GRAMS; Weight (dystrophic chickens 413; Exp. 4, 413B, day 9): 58.1 GRAMS; Weight (dystrophic chickens 413; Exp. 4, 413C, day 1): 36.9 GRAMS; Weight (dystrophic chickens 413; Exp. 4, 413C, day 4): 44.4 GRAMS; Weight (dystrophic chickens 413; Exp. 4, 413C, day 7): 49.9 GRAMS; Weight (dystrophic chickens 413; Exp. 4, 413C, day 9): 45.2 GRAMS; Weight (dystrophic chickens 413; Exp. 4, 413C, day 11): 53.2 GRAMS; Weight (dystrophic chickens 413; Exp. 4, 413C, day 14): 77.4 GRAMS; Weight (dystrophic chickens 413; Exp. 4, 413C, day 16): 90.5 GRAMS; Weight (dystrophic chickens 413; Exp. 4, 413C, day 17): 104.8 GRAMS; Weight (dystrophic chickens 413; Exp. 4, 413D, day 1): 44.5 GRAMS; Weight (dystrophic chickens 413; Exp. 4, 413D, day 4): 51.2 GRAMS; Weight (dystrophic chickens 413; Exp. 4, 413D, day 7): 59.8 GRAMS; Weight (dystrophic chickens 413; Exp. 4, 413D, day 9): 56.5 GRAMS; Weight (dystrophic chickens 413; Exp. 4, 413D, day 11): 65.4 GRAMS; Weight (dystrophic chickens 413; Exp. 4, 413D, day 14): 93.7 GRAMS; Weight (dystrophic chickens 413; Exp. 4, 413D, day 16): 115.1 GRAMS; Weight (dystrophic chickens 413; Exp. 4, 413D, day 20): 161.3 GRAMS; Weight (dystrophic chickens 413; Exp. 4, 413D, day 22): 210.2 GRAMS; Weight (dystrophic chickens 413; Exp. 4, 413D, day 25): 240.7 GRAMS
